# Measurements: PubChem BioAssay (NCI)
#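 How tested: cells in 96-well plates exposed to compound for 48 hours at five concentrations. TGI: total growth inhibition.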
# What was measured:
# Assay in all cases: NCI-60 cell line screen, 48 h
# 786-0 renal = system: 786-0 renal
# A498 renal = system: A498 renal
# A549 NSCLC = system: A549 NSCLC
# ACHN renal = system: ACHN renal
# BT-549 breast = system: BT-549 breast
# CAKI-1 renal = system: CAKI-1 renal
# CCRF-CEM leukemia = system: CCRF-CEM leukemia
# COLO 205 colon = system: COLO 205 colon
# DU-145 prostate = system: DU-145 prostate
# EKVX NSCLC = system: EKVX NSCLC
# HCC-2998 colon = system: HCC-2998 colon
# HCT-116 colon = system: HCT-116 colon
# HCT-15 colon = system: HCT-15 colon
# HL-60(TB) leukemia = system: HL-60(TB) leukemia
# HOP-62 NSCLC = system: HOP-62 NSCLC
# HOP-92 NSCLC = system: HOP-92 NSCLC
# HS 578T breast = system: HS 578T breast
# HT29 colon = system: HT29 colon
# IGROV1 ovarian = system: IGROV1 ovarian
# K-562 leukemia = system: K-562 leukemia
# KM12 colon = system: KM12 colon
# LOX IMVI melanoma = system: LOX IMVI melanoma
# M14 melanoma = system: M14 melanoma
# MALME-3M melanoma = system: MALME-3M melanoma
# MCF7 breast = system: MCF7 breast
# MDA-MB-231 breast = system: MDA-MB-231 breast
# MDA-MB-435 = system: MDA-MB-435
# MDA-N = system: MDA-N
# MOLT-4 leukemia = system: MOLT-4 leukemia
# NCI-H226 lung = system: NCI-H226 lung
# NCI-H23 lung = system: NCI-H23 lung
# NCI-H460 lung = system: NCI-H460 lung
# NCI-H522 lung = system: NCI-H522 lung
# NCI/ADR-RES ovarian = system: NCI/ADR-RES ovarian
# OVCAR-3 ovarian = system: OVCAR-3 ovarian
# OVCAR-4 ovarian = system: OVCAR-4 ovarian
# OVCAR-5 ovarian = system: OVCAR-5 ovarian
# OVCAR-8 ovarian = system: OVCAR-8 ovarian
# PC-3 prostate = system: PC-3 prostate
# RPMI-8226 leukemia = system: RPMI-8226 leukemia
# RXF 393 renal = system: RXF 393 renal
# SF-268 CNS = system: SF-268 CNS
# SF-295 CNS = system: SF-295 CNS
# SK-MEL-2 melanoma = system: SK-MEL-2 melanoma
# SK-MEL-28 melanoma = system: SK-MEL-28 melanoma
# SK-MEL-5 melanoma = system: SK-MEL-5 melanoma
# SK-OV-3 ovarian = system: SK-OV-3 ovarian
# SN12C renal = system: SN12C renal
# SNB-19 CNS = system: SNB-19 CNS
# SNB-75 CNS = system: SNB-75 CNS
# SR leukemia = system: SR leukemia
# SW-620 colon = system: SW-620 colon
# T-47D breast = system: T-47D breast
# TK-10 renal = system: TK-10 renal
# U251 CNS = system: U251 CNS
# UACC-257 melanoma = system: UACC-257 melanoma
# UACC-62 melanoma = system: UACC-62 melanoma
# UO-31 renal = system: UO-31 renal
# SF-539 CNS = system: SF-539 CNS
structure (smiles),measurement,setting,value
Cc1ccc([N+](=O)[O-])cc1S(=O)(=O)Nc1ccc(C2=NN(S(=O)(=O)c3cc([N+](=O)[O-])ccc3C)C(c3ccccc3)C2)cc1 (centres undefined),TGI,786-0 renal,> 100 µM
same,TGI,A498 renal,82.6 µM
same,TGI,A549 NSCLC,> 100 µM
same,TGI,ACHN renal,> 100 µM
same,TGI,BT-549 breast,57.2 µM
same,TGI,CAKI-1 renal,> 100 µM
same,TGI,CCRF-CEM leukemia,> 100 µM
same,TGI,COLO 205 colon,78.8 µM
same,TGI,DU-145 prostate,> 100 µM
same,TGI,EKVX NSCLC,> 100 µM
same,TGI,HCC-2998 colon,59.8 µM
same,TGI,HCT-116 colon,51.8 µM
same,TGI,HCT-15 colon,> 100 µM
same,TGI,HL-60(TB) leukemia,> 100 µM
same,TGI,HOP-62 NSCLC,> 100 µM
same,TGI,HOP-92 NSCLC,> 100 µM
same,TGI,HS 578T breast,21.2 µM
same,TGI,HT29 colon,> 100 µM
same,TGI,IGROV1 ovarian,> 100 µM
same,TGI,K-562 leukemia,> 100 µM
same,TGI,KM12 colon,> 100 µM
same,TGI,LOX IMVI melanoma,> 100 µM
same,TGI,M14 melanoma,98.1 µM
same,TGI,MALME-3M melanoma,62.8 µM
same,TGI,MCF7 breast,> 100 µM
same,TGI,MDA-MB-231 breast,90.9 µM
same,TGI,MDA-MB-435,> 100 µM
same,TGI,MDA-N,97.3 µM
same,TGI,MOLT-4 leukemia,> 100 µM
same,TGI,NCI-H226 lung,> 100 µM
same,TGI,NCI-H23 lung,60.5 µM
same,TGI,NCI-H460 lung,55.5 µM
same,TGI,NCI-H522 lung,50.6 µM
same,TGI,NCI/ADR-RES ovarian,81.1 µM
same,TGI,OVCAR-3 ovarian,89.4 µM
same,TGI,OVCAR-4 ovarian,> 100 µM
same,TGI,OVCAR-5 ovarian,> 100 µM
same,TGI,OVCAR-8 ovarian,> 100 µM
same,TGI,PC-3 prostate,98.8 µM
same,TGI,RPMI-8226 leukemia,76.1 µM
same,TGI,RXF 393 renal,> 100 µM
same,TGI,SF-268 CNS,56.7 µM
same,TGI,SF-295 CNS,> 100 µM
same,TGI,SK-MEL-2 melanoma,61.6 µM
same,TGI,SK-MEL-28 melanoma,> 100 µM
same,TGI,SK-MEL-5 melanoma,> 100 µM
same,TGI,SK-OV-3 ovarian,> 100 µM
same,TGI,SN12C renal,> 100 µM
same,TGI,SNB-19 CNS,> 100 µM
same,TGI,SNB-75 CNS,> 100 µM
same,TGI,SR leukemia,> 100 µM
same,TGI,SW-620 colon,> 100 µM
same,TGI,T-47D breast,> 100 µM
same,TGI,TK-10 renal,> 100 µM
same,TGI,U251 CNS,> 100 µM
same,TGI,UACC-257 melanoma,74.7 µM
same,TGI,UACC-62 melanoma,44.7 µM
same,TGI,UO-31 renal,> 100 µM
Cc1cc(NC2=CC(=O)C(=O)c3ccccc32)no1,TGI,786-0 renal,30.4 µM
same,TGI,A498 renal,33.1 µM
same,TGI,A549 NSCLC,19.4 µM
same,TGI,ACHN renal,25.8 µM
same,TGI,BT-549 breast,13.4 µM
same,TGI,CAKI-1 renal,17.1 µM
same,TGI,CCRF-CEM leukemia,40.9 µM
same,TGI,COLO 205 colon,31.6 µM
same,TGI,DU-145 prostate,30.1 µM
same,TGI,EKVX NSCLC,31.5 µM
same,TGI,HCC-2998 colon,35.2 µM
same,TGI,HCT-116 colon,34.4 µM
same,TGI,HCT-15 colon,19 µM
same,TGI,HL-60(TB) leukemia,> 29.6 µM
same,TGI,HOP-62 NSCLC,32.5 µM
same,TGI,HOP-92 NSCLC,30.1 µM
same,TGI,HS 578T breast,40.9 µM
same,TGI,HT29 colon,28.3 µM
same,TGI,IGROV1 ovarian,21.8 µM
same,TGI,K-562 leukemia,20.1 µM
same,TGI,KM12 colon,29.7 µM
same,TGI,LOX IMVI melanoma,4.06 µM
same,TGI,M14 melanoma,28.3 µM
same,TGI,MALME-3M melanoma,5.92 µM
same,TGI,MCF7 breast,7.66 µM
same,TGI,MDA-MB-231 breast,> 67.2 µM
same,TGI,MDA-MB-435,3.34 µM
same,TGI,MDA-N,3.34 µM
same,TGI,MOLT-4 leukemia,31.7 µM
same,TGI,NCI-H226 lung,35.9 µM
same,TGI,NCI-H23 lung,39.8 µM
same,TGI,NCI-H460 lung,23.3 µM
same,TGI,NCI-H522 lung,34.5 µM
same,TGI,NCI/ADR-RES ovarian,15.6 µM
same,TGI,OVCAR-3 ovarian,14.1 µM
same,TGI,OVCAR-4 ovarian,21.4 µM
same,TGI,OVCAR-5 ovarian,18.1 µM
same,TGI,OVCAR-8 ovarian,29.4 µM
same,TGI,PC-3 prostate,53.9 µM
same,TGI,RPMI-8226 leukemia,32.5 µM
same,TGI,RXF 393 renal,29.6 µM
same,TGI,SF-268 CNS,31.2 µM
same,TGI,SF-295 CNS,21.6 µM
same,TGI,SF-539 CNS,13.4 µM
same,TGI,SK-MEL-2 melanoma,10.4 µM
same,TGI,SK-MEL-28 melanoma,31.6 µM
same,TGI,SK-MEL-5 melanoma,6.57 µM
same,TGI,SK-OV-3 ovarian,40.3 µM
same,TGI,SN12C renal,7.1 µM
same,TGI,SNB-19 CNS,31.9 µM
same,TGI,SNB-75 CNS,23 µM
same,TGI,SR leukemia,> 48.1 µM
same,TGI,SW-620 colon,14.6 µM
same,TGI,T-47D breast,32.7 µM
same,TGI,TK-10 renal,63.4 µM
same,TGI,U251 CNS,13.4 µM
same,TGI,UACC-257 melanoma,16.7 µM
same,TGI,UACC-62 melanoma,9.27 µM
same,TGI,UO-31 renal,20.4 µM
COc1ccc(C(CC2(c3ccc(OC)cc3)SCCCS2)NC(C)=O)cc1 (centres undefined),TGI,786-0 renal,> 100 µM
same,TGI,A498 renal,> 100 µM
same,TGI,A549 NSCLC,> 100 µM
same,TGI,ACHN renal,> 100 µM
same,TGI,BT-549 breast,> 100 µM
same,TGI,CAKI-1 renal,> 100 µM
same,TGI,CCRF-CEM leukemia,> 100 µM
same,TGI,COLO 205 colon,56.7 µM
same,TGI,DU-145 prostate,> 100 µM
same,TGI,EKVX NSCLC,> 100 µM
same,TGI,HCC-2998 colon,> 100 µM
same,TGI,HCT-116 colon,> 100 µM
same,TGI,HCT-15 colon,> 100 µM
same,TGI,HL-60(TB) leukemia,> 100 µM
same,TGI,HOP-62 NSCLC,> 100 µM
same,TGI,HOP-92 NSCLC,> 100 µM
same,TGI,HS 578T breast,> 100 µM
same,TGI,HT29 colon,> 100 µM
same,TGI,IGROV1 ovarian,> 100 µM
same,TGI,K-562 leukemia,> 100 µM
same,TGI,KM12 colon,> 100 µM
same,TGI,LOX IMVI melanoma,> 100 µM
same,TGI,M14 melanoma,> 100 µM
same,TGI,MALME-3M melanoma,> 100 µM
same,TGI,MCF7 breast,> 100 µM
same,TGI,MDA-MB-231 breast,> 100 µM
same,TGI,MDA-MB-435,> 100 µM
same,TGI,MDA-N,> 100 µM
same,TGI,MOLT-4 leukemia,84.3 µM
same,TGI,NCI-H23 lung,> 100 µM
same,TGI,NCI-H460 lung,> 100 µM
same,TGI,NCI-H522 lung,> 100 µM
same,TGI,NCI/ADR-RES ovarian,73.4 µM
same,TGI,OVCAR-3 ovarian,> 100 µM
same,TGI,OVCAR-5 ovarian,> 100 µM
same,TGI,OVCAR-8 ovarian,> 100 µM
same,TGI,PC-3 prostate,69 µM
same,TGI,RPMI-8226 leukemia,> 100 µM
same,TGI,RXF 393 renal,> 100 µM
same,TGI,SF-268 CNS,> 100 µM
same,TGI,SF-295 CNS,> 100 µM
same,TGI,SF-539 CNS,> 100 µM
same,TGI,SK-MEL-2 melanoma,> 100 µM
same,TGI,SK-MEL-28 melanoma,> 100 µM
same,TGI,SK-MEL-5 melanoma,37.7 µM
same,TGI,SK-OV-3 ovarian,> 100 µM
same,TGI,SN12C renal,96.8 µM
same,TGI,SNB-19 CNS,> 100 µM
same,TGI,SNB-75 CNS,> 100 µM
same,TGI,SR leukemia,> 100 µM
same,TGI,SW-620 colon,> 100 µM
same,TGI,T-47D breast,66.5 µM
same,TGI,TK-10 renal,> 100 µM
same,TGI,U251 CNS,> 100 µM
same,TGI,UACC-257 melanoma,70.2 µM
same,TGI,UACC-62 melanoma,> 100 µM
same,TGI,UO-31 renal,> 100 µM
